We go through two compounds from PMC10510716.

This data set is described as follows: Paal-Knorr pyrrole formation between a side-chain 1,4-diketone (DOP1, unmasked from 5-methylfuran in TFA/m-cresol 9:1) and a side-chain hydrazide (Nu2) or aminooxy group (Nu5); crude redissolved in mQ water. The conditions noted are these: the molecule shown is the open-chain precursor, pH ~2.5, 5.0 mM.

As for `CC(=O)CCC(=O)CCC(=O)NCCC[C@H](NC(=O)[C@H](Cc1ccc(O)cc1)NC(C)=O)C(=O)N[C@@H](CCCNC(=N)N)C(=O)NCC(=O)N[C@@H](CC(=O)O)C(=O)N[C@@H](CCCNC(=O)CON)C(=O)N[C@@H](CO)C(=O)N[C@@H](Cc1c[nH]c2ccccc12)C(N)=O` [Ac-Y-Orn(4,7-dioxooctanoyl)*-R-G-D-Orn(COCH2ONH2)*-S-W-NH2], for the setting “29-membered ring”, the ring closure, overall yield was 8.1%.

Take `CC(=O)CCC(=O)CCC(=O)NCCC[C@H](NC(=O)[C@H](Cc1ccc(O)cc1)NC(C)=O)C(=O)N[C@@H](CCCNC(=N)N)C(=O)NCC(=O)N[C@@H](CC(=O)O)C(=O)N[C@@H](CCCNC(=O)CCC(=O)NN)C(=O)N[C@@H](CO)C(=O)N[C@@H](Cc1c[nH]c2ccccc12)C(N)=O`: the ring closure, overall yield (31-membered ring) was determined as 2.3%.
